Legend:
MT4 [1] = experiment: Selectivity index expressed as the ratio of CC50/ EC50; format: functional, Homo sapiens
MT4 [2] = experiment: Effective concentration against HIV-1 induced cytopathogenicity in MT-4 cells; format: functional, cell-based; settings: Homo sapiens
MT4 [3] = experiment: Concentration required to reduce the viability of mock-infected MT-4 cells by 50%; format: functional; settings: Homo sapiens
[4] = biological target: Human immunodeficiency virus type 1 reverse transcriptase (Human immunodeficiency virus 1, UniProt Q72547, Y181C); experiment: Inhibitory activity against HIV rRT activity in mutant HIV-1 strain resistant to Nevirapine (Y181C)
[5] = biological target: Human immunodeficiency virus type 1 reverse transcriptase (Human immunodeficiency virus 1, UniProt Q72547); experiment: Inhibitory activity against HIV rRT activity in wild type IIIB strain
[6] = biological target: Human immunodeficiency virus type 1 reverse transcriptase (Human immunodeficiency virus 1, UniProt Q72547, L100I); experiment: Inhibitory activity against HIV rRT activity in HIV-1 mutant resistant to TIBO(L100I) strain
[7] = biological target: Human immunodeficiency virus type 2 pol protein (Human immunodeficiency virus 2, UniProt P88142); experiment: Inhibitory activity against HIV rRT activity in HIV-2
Chain of Human immunodeficiency virus type 2 pol protein (P88142 whole entry): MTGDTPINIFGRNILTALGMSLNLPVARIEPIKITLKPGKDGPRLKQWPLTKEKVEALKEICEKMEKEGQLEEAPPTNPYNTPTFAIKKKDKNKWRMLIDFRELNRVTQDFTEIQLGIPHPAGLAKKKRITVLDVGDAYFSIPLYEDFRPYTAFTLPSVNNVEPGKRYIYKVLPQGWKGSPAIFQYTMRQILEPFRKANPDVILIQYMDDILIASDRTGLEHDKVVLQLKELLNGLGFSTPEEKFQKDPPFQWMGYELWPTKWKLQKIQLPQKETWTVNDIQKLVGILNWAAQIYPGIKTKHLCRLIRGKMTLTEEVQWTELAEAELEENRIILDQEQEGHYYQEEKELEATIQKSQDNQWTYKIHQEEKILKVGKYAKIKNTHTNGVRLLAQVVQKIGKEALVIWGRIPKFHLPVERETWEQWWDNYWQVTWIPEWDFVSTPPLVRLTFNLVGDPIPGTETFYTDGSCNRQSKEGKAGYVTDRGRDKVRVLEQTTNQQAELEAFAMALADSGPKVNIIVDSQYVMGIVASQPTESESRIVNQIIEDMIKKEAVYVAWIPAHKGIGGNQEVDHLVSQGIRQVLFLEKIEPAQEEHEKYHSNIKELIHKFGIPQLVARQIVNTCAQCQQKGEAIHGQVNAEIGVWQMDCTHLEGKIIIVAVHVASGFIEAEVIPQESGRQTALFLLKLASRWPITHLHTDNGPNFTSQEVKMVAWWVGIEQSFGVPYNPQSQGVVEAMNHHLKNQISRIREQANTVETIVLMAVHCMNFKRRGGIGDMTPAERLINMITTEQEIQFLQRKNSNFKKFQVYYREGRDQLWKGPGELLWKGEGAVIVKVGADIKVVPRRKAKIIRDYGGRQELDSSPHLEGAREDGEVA

Compound	Ratio (MT4 [1])	EC50 (MT4 [2]) [µM]	CC50 (MT4 [3]) [µM]	IC50 [4] [µM]	IC50 [5] [µM]	IC50 [6] [µM]	IC50 [7] [µM]
COC(=O)c1cccn1S(=O)(=O)c1cc(N)ccc1Cl	2	75	150				
Nc1ccc(Cl)cc1S(=O)(=O)n1cccc1	2	95	165				
COC(=O)c1cccn1S(=O)(=O)c1ccccc1N	>14	22	> 300				
CCOC(=O)CC(=O)Nc1ccc(Cl)cc1S(=O)(=O)n1cccc1C(=O)OCC	111	2.6	290	> 20	> 20	> 20	> 20
CCOC(=O)c1cccn1S(=O)(=O)c1ccccc1N	>30	10	> 300				
C=CCOC(=O)c1cccn1S(=O)(=O)c1cc(Cl)ccc1[N+](=O)[O-]		> 4.3	4.3				
O=C(NC1CCCCC1)c1cccn1S(=O)(=O)c1ccccc1F		> 300	300				
CCOC(=O)c1cccn1S(=O)(=O)c1cc(N)ccc1Cl		> 72	72				
CC(=O)c1cccn1S(=O)(=O)c1ccccc1[N+](=O)[O-]	50	2	100				
O=C(NCc1ccccc1)c1cccn1S(=O)(=O)c1ccccc1F	7	40	> 300				
COC(=O)c1cccn1S(=O)(=O)c1ccc(Cl)cc1[N+](=O)[O-]		> 300	> 300				
CCOC(=O)c1cccn1S(=O)(=O)c1cc(Cl)ccc1NC(=O)CC	>300	1	> 300	> 20	> 20	> 20	> 20
O=[N+]([O-])c1ccccc1S(=O)(=O)n1cccc1		> 36	36				
Nc1ccc(Cl)cc1S(=O)(=O)n1ccc2ccccc21		1	1				
Nc1ccccc1S(=O)(=O)n1ccc2ccccc21	5	11	58				
C=CCOC(=O)c1cccn1S(=O)(=O)c1cc(Cl)ccc1N	250	0.4	100	14	0.9	> 20	> 20
CCOC(=O)c1cccn1S(=O)(=O)c1ccccc1Cl	5	27	141				
CCNc1ccc(Cl)cc1S(=O)(=O)n1cccc1C(=O)OCC		> 300	300				
CC(C)OC(=O)c1cccn1S(=O)(=O)c1cc(Cl)ccc1N	>2140	0.14	> 300	8	0.27	14	> 20
Nc1ccc(Cl)cc1S(=O)(=O)n1cccc1C(=O)OCc1ccccc1	>2	150	> 300				
O=C(OCc1ccccc1)c1cccn1S(=O)(=O)c1cc(Cl)ccc1[N+](=O)[O-]		> 300	300				
O=CNNC(=O)c1cccn1S(=O)(=O)c1ccccc1F		> 300	300				
CCOC(=O)c1cccn1S(=O)(=O)c1cc(C)ccc1[N+](=O)[O-]	>30.6	9.8	> 300	> 20	5	> 20	> 20

Compound	Ratio (MT4 [1])	EC50 (MT4 [2]) [µM]	CC50 (MT4 [3]) [µM]	IC50 [4] [µM]	IC50 [5] [µM]	IC50 [6] [µM]	IC50 [7] [µM]
O=[N+]([O-])c1ccc(Cl)c(S(=O)(=O)n2ccc3ccccc32)c1		> 3	3				
O=[N+]([O-])c1ccc(Cl)c(S(=O)(=O)n2cccc2)c1		> 2	2				
CCOC(=O)c1cccn1S(=O)(=O)c1cc(C)ccc1N	>176	1.7	> 300	> 20	4	> 20	> 20
CCOC(=O)c1cccn1S(=O)(=O)c1cc([N+](=O)[O-])ccc1Cl		> 6	6				
Nc1cc(Cl)ccc1S(=O)(=O)n1cccc1		> 75	75				
O=[N+]([O-])c1ccc(Cl)cc1S(=O)(=O)n1cccc1		> 2	2				
CCOC(=O)c1cccn1S(=O)(=O)c1cc(Cl)ccc1NC(C)=O	>=300	1	> 300	> 20	> 20	> 20	> 20
COC(=O)c1cccn1S(=O)(=O)c1cc(Cl)ccc1[N+](=O)[O-]	1.2	10	12				
CCOC(=O)c1cccn1S(=O)(=O)c1cc(Cl)ccc1NC		> 300	300				
CCOC(=O)c1cccn1S(=O)(=O)c1cc(Cl)c(Cl)cc1[N+](=O)[O-]		> 5	5				
Nc1ccc(Cl)c(S(=O)(=O)n2ccc3ccccc32)c1	>2	150	> 300				
O=C(O)c1cccn1S(=O)(=O)c1ccccc1F		> 300	> 300				
COC(=O)c1cccn1S(=O)(=O)c1cc(Cl)ccc1N	>1666	0.18	> 300	6.9	0.45	7.4	> 20
COC(=O)c1cccn1S(=O)(=O)c1ccc(Cl)cc1N		> 248	248				
CCOC(=O)c1cccn1S(=O)(=O)c1cc(Cl)ccc1N	>2140	0.14	> 300	7.5	0.4	8.5	> 20
O=[N+]([O-])c1ccccc1S(=O)(=O)n1ccc2ccccc21	5	5	24				
CNc1ccccc1S(=O)(=O)n1cccc1		> 300	> 300				
COC(=O)c1cccn1S(=O)(=O)c1cc([N+](=O)[O-])ccc1Cl		> 12	12				
O=C(NC1CC1)c1cccn1S(=O)(=O)c1ccccc1F		> 300	300				
CCOC(=O)c1cccn1S(=O)(=O)c1cc(Cl)c(Cl)cc1N	>25	12	> 300				
Nc1ccc(Cl)c(S(=O)(=O)n2cccc2)c1		> 91	91				
Nc1cc(Cl)ccc1S(=O)(=O)n1ccc2ccccc21		> 37	37				
O=C(O)c1cccn1S(=O)(=O)c1ccccc1Cl		247	> 300				

Compound	Ratio (MT4 [1])	EC50 (MT4 [2]) [µM]	CC50 (MT4 [3]) [µM]	IC50 [4] [µM]	IC50 [5] [µM]	IC50 [6] [µM]	IC50 [7] [µM]
CCCOC(=O)c1cccn1S(=O)(=O)c1cc(Cl)ccc1N	500	0.22	110	5	0.4	10	> 20
CCCCNc1ccc(Cl)cc1S(=O)(=O)n1cccc1C(=O)OCC		> 300	> 300				
COC(=O)c1cccn1S(=O)(=O)c1ccccc1[N+](=O)[O-]	>60	5	> 300				
CCOC(=O)c1cccn1S(=O)(=O)c1ccccc1F	10	13	132				
O=[N+]([O-])c1cc(Cl)ccc1S(=O)(=O)n1cccc1		> 15	15				
CCOC(=O)c1cccn1S(=O)(=O)c1cc(Cl)ccc1NC=O	>300	1	> 300	> 20	> 20	> 20	> 20
CCOC(=O)c1cccn1S(=O)(=O)c1ccc(Cl)cc1N		> 238	238				
CCCOC(=O)c1cccn1S(=O)(=O)c1cc(Cl)ccc1[N+](=O)[O-]		> 10	10				
O=[N+]([O-])c1ccc(Cl)cc1S(=O)(=O)n1ccc2ccccc21		> 2	2				
CCOC(=O)c1cccn1S(=O)(=O)c1ccccc1[N+](=O)[O-]	>20	15	> 300				
CC(C)OC(=O)c1cccn1S(=O)(=O)c1cc(Cl)ccc1[N+](=O)[O-]	>10	30	> 300				
CCN(CC)CCOC(=O)c1cccn1S(=O)(=O)c1cc(Cl)ccc1[N+](=O)[O-]		> 30	30				
O=[N+]([O-])c1cc(Cl)ccc1S(=O)(=O)n1ccc2ccccc21		> 8	8				
CCOC(=O)c1cccn1S(=O)(=O)c1ccc(Cl)cc1[N+](=O)[O-]	>20	15	> 300				
CCOC(=O)c1cccn1S(=O)(=O)c1cc(Cl)ccc1[N+](=O)[O-]		> 12	12				
Nc1ccccc1S(=O)(=O)n1cccc1		> 228	228				
CCN(CC)CCOC(=O)c1cccn1S(=O)(=O)c1cc(Cl)ccc1N	13.5	12	162				
CC(C)=CCN1Cc2cccc3nc(S)n(c23)C[C@H]1C				9	0.9	> 20	> 20
CCOC(=O)c1cc2ccccc2n1S(=O)(=O)c1cc(Cl)ccc1N	28	1.8	50				
CCOC(=O)c1cc2ccccc2n1S(=O)(=O)c1cc(Cl)ccc1[N+](=O)[O-]		> 100	> 100				
Cc1ccnc2c1NC(=O)c1cccnc1N2C1CC1 [NEVIRAPINE]			< 300				> 20
Cc1cn([C@H]2C[C@H](N=[N+]=[N-])[C@@H](CO)O2)c(=O)[nH]c1=O [ZIDOVUDINE]	>2000		> 20				

Reference: ChEMBL document CHEMBL1129665, “2-Sulfonyl-4-chloroanilino moiety: a potent pharmacophore for the anti-human immunodeficiency virus type 1 activity of pyrrolyl aryl sulfones” (J Med Chem, 1996)
